Series [1] in a line: Intrinsic clearance in human hepatocytes measured per million cells at 2 uM incubated for 15 to 120 mins by LC-MS/MS analysis. The series is classed as ADME, cell-based, Hepatocyte. The conditions noted are these: time 15-120 min, read-out: CLH.
The nature of series [2]: Intrinsic clearance in mouse hepatocytes measured per million cells at 2 uM incubated for 15 to 120 mins by LC-MS/MS analysis. It is filed as ADME, cell-based, Hepatocyte. To be noted: time 15-120 min, read-out: CLH.
The nature of series [3]: Lipophilicity, log D of compound in potassium phosphate buffer/octanol at pH 7.4 by shake flask method. The series is classed as physicochemical.
Series [4] in a line: Apparent permeability across apical to basal side in human Caco-2 cells at 10 uM incubated for 90 mins by LC-MS/MS analysis. It is filed as ADME, cell-based. In general terms: Passage across Caco-2 layers is used to estimate intestinal permeability.
Series [5] can be described thus: Apparent permeability across basal to apical side in human Caco-2 cells at 10 uM incubated for 90 mins by LC-MS/MS analysis. The series is classed as ADME, cell-based.
The nature of series [6]: Unbound drug level in C57BL/6 mouse at 30 mg/kg, po measured for 12 hrs. The series is classed as ADME, organism-based. The conditions noted are these: in vivo.

Here are results for three compounds from ChEMBL document CHEMBL6074690, “Development and Characterization of a High-Affinity Selective Galectin-3 Mouse Tool Compound in Mouse Models of Cancer” (J Med Chem, 2024).

For orientation: logD means lipophilicity at a set pH, counting ionised and neutral species. Lower therefore signals lower lipophilicity. By Papp A→B is commonly meant how fast a substance crosses the layer from the apical side. What is called Papp B→A is how fast a substance crosses the layer from the basolateral side. On to `OC[C@H]1O[C@@H](Sc2ccc(Cl)c(Cl)c2)[C@H](O)[C@@H](n2cc(-c3cc(F)c(F)c(F)c3)nn2)[C@H]1O`, for which the hepatocyte CLint at 2 µM in series [1] stood at 0.7 µL/min/1e6 cells; in series [2], 0.8 µL/min/1e6 cells. In series [3], this compound gave a logD of 4.6. Besides, the Papp A→B at […], 10 µM in series [4] was determined as […]. The Papp B→A at […], 10 µM in series [5] stood at […].
Taken in the same sequence, the figures for `OC[C@H]1O[C@@H](Sc2cncc(Br)c2)[C@H](O)[C@@H](n2cc(-c3cc(F)c(F)c(F)c3)nn2)[C@H]1O` were 0.15 µL/min/1e6 cells, […], […], […] and […].
As for `OC[C@H]1O[C@@H](Sc2cncc(Br)c2)[C@H](O)[C@@H](n2cc(-c3cc(F)c(Cl)c(F)c3)nn2)[C@H]1O`, the “Drug uptake(free)” value in series [6] is “Active”. In addition, the hepatocyte CLint at 2 µM in series [2] was 0.6 µL/min/1e6 cells. Further, the logD in series [3] is greater than 4. Moreover, in series [5], the Papp B→A at […], 10 µM stood at 17 ×10⁻⁶ cm/s.
